Experimental findings from patent US10174016B2 (BAYER AKTIENGESELLSCHAFT, priority 2014, dated 2019) are described below.

Read-outs that look alike come from different tables or passages of the source.

One test deals with human P2X3 receptor (Homo sapiens (Human), UniProt P56373). Nature of the test: Intracellular calcium measurement (FLIPR, Fluo-4) of antagonist activity at human P2X3 receptors. The class given is cell-based. The following applies: read-out: hP2X3 IC50. As for the experimental part: (§1) Intracellular Calcium Measurement to Assess Antagonist Activity at Human P2X3 and Human P2X2/3 Receptors
human P2X3 receptor, sequence (P56373 whole entry): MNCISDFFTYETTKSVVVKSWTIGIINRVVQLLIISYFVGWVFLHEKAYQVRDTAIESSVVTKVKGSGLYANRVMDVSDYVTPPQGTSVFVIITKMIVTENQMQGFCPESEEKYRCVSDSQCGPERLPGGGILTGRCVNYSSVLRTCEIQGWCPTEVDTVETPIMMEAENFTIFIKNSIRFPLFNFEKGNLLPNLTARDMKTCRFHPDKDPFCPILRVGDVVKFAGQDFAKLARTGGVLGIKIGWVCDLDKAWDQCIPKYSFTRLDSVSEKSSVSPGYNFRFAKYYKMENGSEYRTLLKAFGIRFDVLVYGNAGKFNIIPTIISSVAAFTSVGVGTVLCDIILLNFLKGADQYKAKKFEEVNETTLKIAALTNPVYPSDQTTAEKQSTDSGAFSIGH
(§2) A fluorescent imaging plate reader (FLEX/FLIPR station; Molecular Devices) was used to monitor intracellular calcium levels using the calcium-chelating dye Fluo-4 (Molecular Probes). […] Cells expressing purinergic receptors P2X3 (human) or P2X2/3 (human) were plated at a density of 15,000 cells/well in collagen-coated 384-well plates approximately 20 hours before beginning the assay. […] The test compound was added in a volume of 5 μl and allowed to incubate for 30 min at 37° C. The final assay DMSO concentration is 1%. The agonist, α,β-Me-ATP, was added in a volume of 20 μl at a concentration representing the EC80 value. The fluorescence was measured for an interval of 90 sec at 2 sec intervals and analyzed based on the increase in peak relative fluorescence units (RFU) compared to the basal fluorescence. Peak fluorescence was used to determine the response to agonist obtained at each concentration of test compound by the following equation: % Response=100*(RFU(test compound)−RFU(control)/RFU(DMSO)−RFU(control))
(§3) The Examples were tested in triplicates per plate and mean values were plotted in Excel XLFit to determine IC50 values at the human P2X3 and human P2X2/3 receptors, percentage of maximal inhibition and the Hill coefficients.
In general terms: A change in cytosolic calcium serves as a functional read-out for many receptors and channels.

The target in another test is human P2X2/3 receptor (Homo sapiens (Human), UniProt P56373+Q9UBL9). In words: Intracellular calcium measurement (FLIPR, Fluo-4) of antagonist activity at human P2X2/3 receptors. The following applies: human P2X2/3, FLIPR calcium assay, agonist α,β-Me-ATP; read-out: hP2X2/3 IC50. Type of test: cell-based. The procedure:
as §1, §2, §3

[1] abbreviates: human P2X3, FLIPR calcium assay, agonist α,β-Me-ATP.

human P2X2/3 receptor, sequence (P56373 whole entry): as above
human P2X2/3 receptor, sequence (Q9UBL9 whole entry): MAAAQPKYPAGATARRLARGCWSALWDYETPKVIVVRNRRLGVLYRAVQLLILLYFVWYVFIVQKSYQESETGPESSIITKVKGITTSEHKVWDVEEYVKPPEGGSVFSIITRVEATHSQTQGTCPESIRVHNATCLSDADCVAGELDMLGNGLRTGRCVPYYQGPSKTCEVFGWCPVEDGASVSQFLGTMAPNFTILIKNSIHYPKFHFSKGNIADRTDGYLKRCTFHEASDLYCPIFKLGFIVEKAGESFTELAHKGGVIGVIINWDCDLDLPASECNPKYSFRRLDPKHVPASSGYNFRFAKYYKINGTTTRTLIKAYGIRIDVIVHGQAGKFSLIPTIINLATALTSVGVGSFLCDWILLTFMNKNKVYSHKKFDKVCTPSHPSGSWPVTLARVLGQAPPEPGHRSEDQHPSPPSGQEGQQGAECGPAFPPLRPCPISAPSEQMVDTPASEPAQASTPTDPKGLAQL

Regarding `Cc1cnc(-c2cc(OC3CCS(=O)(=O)CC3)cc(C(=O)N[C@H](C)c3ccc(C(F)(F)F)nc3)c2)s1` [Example 233, 3-[(1,1-dioxidotetrahydro-2H-thiopyran-4-yl)oxy]-5-(5-methyl-1,3-thiazol-2-yl)-N-{(1R)-1-[6-(trifluoromethyl)pyridin-3-yl]ethyl}benzamide], the IC50 on human P2X3 receptor (setting [1]) amounted to 16 nM; on human P2X2/3 receptor, 753 nM.
Consider `Cc1cnc(-c2cc(OC3CCN(C)CC3)cc(C(=O)N[C@H](C)c3ccc(C(F)(F)F)nn3)c2)s1` [Example 210, 3-[(1-methylpiperidin-4-yl)oxy]-5-(5-methyl-1,3-thiazol-2-yl)-N-{(1R)-1-[6-(trifluoromethyl)pyridazin-3-yl]ethyl} benzamide], for which the IC50 at human P2X3 receptor (setting [1]) is 12 nM; on human P2X2/3 receptor, 1010 nM.
Turning to `Cc1ccc([C@@H](C)NC(=O)c2cc(OC[C@@H]3CCOC3)cc(-c3ncc(C)s3)c2)nn1` [Example 77, N-[(1R)-1-(6-Methylpyridazin-3-yl)ethyl]-3-(5-methyl-1,3-thiazol-2-yl)-5-[(3R)-tetrahydrofuran-3-ylmethoxy]benzomide], the IC50 at human P2X3 receptor (setting [1]) worked out at 10 nM; on human P2X2/3 receptor, 183 nM.
With `Cc1ccc(Oc2cc(C(=O)N[C@H](C)c3cnc(C)cn3)cc(-c3ncc(C)s3)c2)cn1` [Example 131, N-[(1R)-1-(5-methylpyrazin-2-yl)ethyl]-3-[(6-methylpyridin-3-yl)oxy]-5-(5-methyl-1,3-thiazol-2-yl)benzamide], the IC50 at human P2X3 receptor (setting [1]) was 134 nM; at human P2X2/3 receptor, 730 nM.
`Cc1cnc(-c2cc(O[C@H]3CCOC3)cc(C(=O)N[C@H](C)c3ccc(Cl)cn3)c2)s1` [Example 27, N-[(1R)-1-(5-Chloropyridin-2-yl)ethyl]-3-(5-methyl-1,3-thiazol-2-yl)-5-[(3S)-tetrahydrofuran-3-yloxy]benzamide]: the IC50 on human P2X3 receptor (setting [1]) worked out at 25 nM; on human P2X2/3 receptor, 280 nM.
Consider `Cc1cnc(-c2cc(OC3COC3)cc(C(=O)NCc3cnc(C(F)(F)F)nc3)c2)s1` [Example 167, 3-(5-methyl-1,3-thiazol-2-yl)-5-(oxetan-3-yloxy)-N-{[2-(trifluoromethyl)pyrimidin-5-yl]methyl}benzamide], for which the IC50 on human P2X3 receptor (setting [1]) was 72 nM; on human P2X2/3 receptor, 893 nM.
On to `Cc1ccc([C@@H](C)NC(=O)c2cc(Oc3nnc(C)s3)cc(-c3ncc(C)s3)c2)nn1` [Example 110, N-[(1R)-1-(6-Methylpyridazin-3-yl)ethyl]-3-[(5-methyl-1,3,4-thiadiazol-2-yl)oxy]-5-(5-methyl-1,3-thiazol-2-yl)benzamide], for which the IC50 stood at 114 nM at human P2X3 receptor (setting [1]) and 1450 nM on human P2X2/3 receptor.
On the same counts, the results for `Cc1ccc(CNC(=O)c2cc(OC3CCOCC3)cc(-c3ncc(C4CCC4)s3)c2)nn1` [Example 237, 3-(5-cyclobutyl-1,3-thiazol-2-yl)-N-[(6-methylpyridazin-3-yl)methyl]-5-(tetrahydro-2H-pyran-4-yloxy)benzamide] are 177 nM and 537 nM.
In the case of `CC(C)c1cnc(-c2cc(O[C@H]3CCOC3)cc(C(=O)N[C@H](C)c3cnc(C(F)(F)F)nc3)c2)s1` [Example 257, 3-[5-(propan-2-yl)-1,3-thiazol-2-yl]-5-[(3S)-tetrahydrofuran-3-yloxy]-N-{(1R)-1-[2-(trifluoromethyl)pyrimidin-5-yl]ethyl}benzamide], the IC50 at human P2X3 receptor (setting [1]) is 47 nM; on human P2X2/3 receptor, 324 nM.
Regarding `CC(C)c1cnc(-c2cc(OC[C@@H]3CCOC3)cc(C(=O)N[C@H](C)c3cnc(C(F)(F)F)nc3)c2)s1` [Example 266, 3-[5-(propan-2-yl)-1,3-thiazol-2-yl]-5-[(3R)-tetrahydrofuran-3-ylmethoxy]-N-{(1R)-1-[2-(trifluoromethyl)pyrimidin-5-yl]ethyl}benzamide], the IC50 is 41 nM on human P2X3 receptor (setting [1]) and 367 nM at human P2X2/3 receptor.
`Cc1cnc(-c2cc(O[C@H]3CCOC3)cc(C(=O)N[C@H](C)c3cnc(C(F)F)nc3)c2)s1` [Example 151, N-{(1R)-1-[2-(difluoromethyl)pyrimidin-5-yl]ethyl}-3-(5-methyl-1,3-thiazol-2-yl)-5-[(3S)-tetrahydrofuran-3-yloxy]benzamide]: the values for the IC50 at human P2X3 receptor (setting [1]) and on human P2X2/3 receptor were 31 nM and 333 nM, respectively.
On the same counts, the results for `Cc1cnc(-c2cc(OC[C@@H]3CNCCO3)cc(C(=O)N[C@H](C)c3cnc(C(F)(F)F)nc3)c2)s1` [Example 350, 3-(5-Methyl-1,3-thiazol-2-yl)-5-[(2S)-morpholin-2-ylmethoxy]-N-{(1R)-1-[2-(trifluoromethyl)pyrimidin-5-yl]ethyl}benzamide] are 14 nM and 1160 nM.
Consider `Cc1cnc(-c2cc(OCCn3cncn3)cc(C(=O)N[C@H](C)c3ccc(C(F)(F)F)nc3)c2)s1` [Example 160, 3-(5-methyl-1,3-thiazol-2-yl)-5-[2-(1H-1,2,4-triazol-1-yl)ethoxy]-N-{(1R)-1-[6-(trifluoromethyl)pyridin-3-yl]ethyl}benzamide], for which the figures for the IC50 on human P2X3 receptor (setting [1]) and at human P2X2/3 receptor were 28 nM and 1010 nM, respectively.
In the case of `Cc1cnc(-c2cc(OC3CC4(C3)CN(C)C4)cc(C(=O)N[C@H](C)c3cnc(C(F)(F)F)nc3)c2)s1` [Example 214, 3-[(2-methyl-2-azaspiro [3.3]hept-6-yl)oxy]-5-(5-methyl-1,3-thiazol-2-yl)-N-{(1R)-1-[2-(trifluoromethyl)pyrimidin-5-yl]ethyl} benzamide], the IC50 at human P2X3 receptor (setting [1]) turned out to be 47 nM; on human P2X2/3 receptor, 3390 nM.
Turning to `Cc1cnc(-c2cc(OC[C@@H]3CCCO3)cc(C(=O)N[C@H](C)c3cnc(C(F)(F)F)nc3)c2)s1` [Example 58, 3-(5-Methyl-1,3-thiazol-2-yl)-5-[(2S)-tetrahydrofuran-2-ylmethoxy]-N-{(1R)-1-[2-(trifluoromethyl)pyrimidin-5-yl]ethyl}benzamide], the IC50 at human P2X3 receptor (setting [1]) was 4 nM; on human P2X2/3 receptor it was 461 nM.
Take `CC(C)c1cnc(-c2cc(OC[C@@H]3CCCO3)cc(C(=O)N[C@H](C)c3ccc(C(F)(F)F)nn3)c2)s1` [Example 301, 3-[5-(propan-2-yl)-1,3-thiazol-2-yl]-5-[(2S)-tetrahydrofuran-2-ylmethoxy]-N-{(1R)-1-[6-(trifluoromethyl)pyridazin-3-yl]ethyl}benzamide]: the IC50 on human P2X3 receptor (setting [1]) turned out to be 91 nM; at human P2X2/3 receptor it was 1710 nM.
Turning to `C#CCOc1cc(C(=O)NCc2ccc(C)nn2)cc(-c2ncc(C)s2)c1` [Example 31, N-[(6-Methylpyridazin-3-yl)methyl]-3-(5-methyl-1,3-thiazol-2-yl)-5-(prop-2-yn-1-yloxy)benzamide], the IC50 at human P2X3 receptor (setting [1]) is 173 nM; at human P2X2/3 receptor, not below 10000 nM.
Take `CC#CCOc1cc(C(=O)N[C@H](C)c2cnc(C(F)(F)F)nc2)cc(-c2ncc(C)s2)c1` [Example 40, 3-(But-2-yn-1-yloxy)-5-(5-methyl-1,3-thiazol-2-yl)-N-[(1R)-1-[2-(trifluoromethyl)pyrimidin-5-yl]ethyl]benzamide]: the IC50 on human P2X3 receptor (setting [1]) came out at 16 nM; at human P2X2/3 receptor, 383 nM.
On the same counts, the results for `Cc1cnc(-c2cc(OC[C@@H]3CCCO3)cc(C(=O)N[C@H](C)c3ccc(C(F)(F)F)nn3)c2)s1` [Example 60, 3-(5-Methyl-1,3-thiazol-2-yl)-5-[(2S)-tetrahydrofuran-2-ylmethoxy]-N-{(1R)-1-[6-(trifluoromethyl)pyridazin-3-yl]ethyl}benzamide] are 11 nM and 578 nM.
`Cc1ccc([C@@H](C)NC(=O)c2cc(OC[C@H]3CCOC3)cc(-c3ncc(C4CCC4)s3)c2)nn1` [Example 135, 3-(5-Cyclobutyl-1,3-thiazol-2-yl)-N-[(1R)-1-(6-methylpyridazin-3-yl)ethyl]-5-[(3S)-tetrahydrofuran-3-ylmethoxy]benzamide]: the values for the IC50 on human P2X3 receptor (setting [1]) and on human P2X2/3 receptor were 35 nM and 209 nM, respectively.
Consider `Cc1cnc(-c2cc(OC[C@@H]3COCCO3)cc(C(=O)N[C@H](C)c3ccc(C(F)(F)F)nc3)c2)s1` [Example 180, 3-[(2S)-1,4-dioxan-2-ylmethoxy]-5-(5-methyl-1,3-thiazol-2-yl)-N-{(1R)-1-[6-(trifluoromethyl)pyridin-3-yl]ethyl}benzamide], for which the figures for the IC50 on human P2X3 receptor (setting [1]) and on human P2X2/3 receptor were 31 nM and 1400 nM, respectively.
With `Cc1cnc(-c2cc(OC[C@H]3COCCN3C)cc(C(=O)N[C@H](C)c3ccc(C(F)(F)F)nc3)c2)s1` [Example 363, 3-{[(3R)-4-methylmorpholin-3-yl]methoxy}-5-(5-methyl-1,3-thiazol-2-yl)-N-{(1R)-1-[6-(trifluoromethyl)pyridin-3-yl]ethyl}benzamide], the IC50 on human P2X3 receptor came to 12 nM; at human P2X2/3 receptor it was 717 nM.
As for `Cc1ccc([C@@H](C)NC(=O)c2cc(O[C@@H]3CCOC3)cc(-c3ncc(Cl)s3)c2)nn1` [Example 317, 3-(5-chloro-1,3-thiazol-2-yl)-N-[(1R)-1-(6-methylpyridazin-3-yl)ethyl]-5-[(3R)-tetrahydrofuran-3-yloxy]benzamide], the IC50 came out at 45 nM on human P2X3 receptor (setting [1]) and 952 nM on human P2X2/3 receptor.
The corresponding values for `Cc1ccc(CNC(=O)c2cc(OC[C@H]3CCCO3)cc(-c3ncc(C)s3)c2)nn1` [Example 62, N-[(6-Methylpyridazin-3-yl)methyl]-3-(5-methyl-1,3-thiazol-2-yl)-5-[(2R)-tetrahydrofuran-2-ylmethoxy]benzamide] are 85 nM and 1440 nM.
